Assay results published in patent US9982005B2, “Macrolides and methods of their preparation and use” (President and Fellows of Harvard College, priority 2013, dated 2018).
Values after ≈ are worked out from the molar mass of the structure shown. Read-outs that look alike come from different tables or passages of the source.

Experiments:
Assay type in all cases: cell-based
[1] = system: BS1723 B. subtilis BS168 WT wild type; assay: broth dilution MIC, B. subtilis BS1723; conditions: Bacillus subtilis, BS1723 B. subtilis BS168 WT wild type; read-out: MIC
Source text: (§1) We have collected MIC data for a total of 50 novel macrolides that this platform has produced against over 21 unique strains of B. subtilis, E. coli, S. aureus, S. pneumoniae, and H. influenzae, including several multidrug-resistant strains, with a special focus on macrolide resistant mechanisms (vide supra). Azithromycin was included as a control macrolide. CLSI standard procedures for broth dilution MIC determination were used. […] These genotypes can be constitutive or inducible. The finding that C4-epi (unnatural) isomers of the “azaketolide” macrolide class have enhanced activities relative to C4 natural isomers is very exciting.

[2] = system: SA101 S. aureus ATCC29213; assay: broth dilution MIC, S. aureus SA101; conditions: Staphylococcus aureus, ATCC29213, SA101 S. aureus ATCC29213; read-out: MIC
Source text: as §1

EC878 E. coli tolC = assay: broth dilution MIC, E. coli EC878; conditions: Escherichia coli
Source text: as §1

BS1725 B. subtilis ermC = assay: broth dilution MIC, B. subtilis BS1725; conditions: Bacillus subtilis
Source text: as §1

EC882 E. coli imp = assay: broth dilution MIC, E. coli EC882; conditions: Escherichia coli
Source text: as §1

EC107 E. coli ATCC25922 = assay: broth dilution MIC, E. coli EC107; conditions: Escherichia coli, read-out: MIC
Source text: as §1

A. baumannii strains = assay: MIC against A. baumannii strains (Table M8); conditions: Acinetobacter baumannii, BAA747, A. baumannii BAA747-1
E. faecalis strains = assay: MIC against E. faecalis strains (Table M8); conditions: Enterococcus faecalis, E. faecalis 29212
S. aureus strains = assay: MIC against S. aureus strains (Table M7); conditions: Staphylococcus aureus
Source text: as §1

H. influenzae strains = assay: MIC against H. influenzae strains (Table M8); conditions: Haemophilus influenzae
Source text: as §1

S. pneumoniae strains = assay: MIC against S. pneumoniae strains (Tables M7, M8); conditions: Streptococcus pneumoniae
Source text: CLSI standard procedures for broth dilution MIC determination were used. […] These genotypes can be constitutive or inducible.

E. coli strains = assay: MIC against E. coli strains (Table M7); conditions: Escherichia coli, ATCC25922, E. coli ATCC 25922
Source text: as §1

K. pneumoniae strains = assay: MIC against K. pneumoniae strains (Table M8); conditions: Klebsiella pneumoniae, K. pneumoniae 10031
[3] = ATCC29213, S. aureus ATCC 29213, read-out: MIC S. aureus (ATCC 29213)
[4] = S. aureus 183, read-out: MIC S. aureus (183)
[5] = S. aureus 506, read-out: MIC S. aureus (506)
[6] = S. aureus 1708, read-out: MIC S. aureus (1708)
[7] = USA300, S. aureus USA300, read-out: MIC S. aureus (USA300)
[8] = H. influenzae 49247, read-out: MIC H. influenzae (49247)
[9] = H. influenzae 49766, read-out: MIC H. influenzae (49766)
[10] = S. pneumoniae 160, read-out: MIC S. pneumonae (160)
[11] = S. pneumoniae 1509, read-out: MIC S. pneumoniae (1509)
[12] = S. pneumoniae 1533, read-out: MIC S. pneumoniae (1533)
[13] = S. pneumoniae 1537, read-out: MIC S. pneumoniae (1537)
[14] = S. pneumoniae 49619, read-out: MIC S. pneumoniae (49619)

| Structure (SMILES) | MIC (A. baumannii strains) | MIC (E. faecalis strains) | MIC (S. aureus strains; [3]) | MIC (S. aureus strains; [4]) | MIC (S. aureus strains; [5]) | MIC (S. aureus strains; [6]) | MIC (S. aureus strains; [7]) | MIC (H. influenzae strains; [8]) | MIC (H. influenzae strains; [9]) | MIC (S. pneumoniae strains; [10]) | MIC (S. pneumoniae strains; [11]) | MIC (S. pneumoniae strains; [12]) | MIC (S. pneumoniae strains; [13]) | MIC (S. pneumoniae strains; [14]) | MIC (E. coli strains) | MIC (K. pneumoniae strains) | further results |
| --- | --- | --- | --- | --- | --- | --- | --- | --- | --- | --- | --- | --- | --- | --- | --- | --- | --- |
| CC[C@H]1OC(=O)[C@H](C)C(=O)[C@H](C)[C@@H](O[C@@H]2OC(C)CC(N(C)C)C2O)[C@](C)(OC)C[C@@H](C)CN(C(C)=O)[C@H](C)[C@H]2N(CCCCn3cc(-c4nccs4)nn3)C(=O)O[C@]12C (stereo partly shown) [FSM-20763] |  |  |  |  |  |  |  |  |  |  |  |  |  |  |  |  | MIC [1]: 16 µg/mL (≈ 18.6 µM); MIC [2]: 16 µg/mL (≈ 18.6 µM); MIC (EC878 E. coli tolC): 4 µg/mL (≈ 4.64 µM); MIC (BS1725 B. subtilis ermC; BS1725 B. subtilis ermC (+ery)): > 32 µg/mL; MIC (EC882 E. coli imp): 2 µg/mL (≈ 2.32 µM); MIC (EC107 E. coli ATCC25922): > 32 µg/mL |
| CC[C@H]1OC(=O)[C@](C)(F)C(=O)C[C@@H](O[C@@H]2OC(C)CC(N(C)C)C2O)[C@](C)(OC)C[C@@H](C)CN[C@H](C)[C@H]2N(CCCCn3cc(-c4ccccn4)nn3)C(=O)O[C@]12C (stereo partly shown) [FSM-10662] |  |  |  |  |  |  |  |  |  |  |  |  |  |  |  |  | MIC [1]: > 32 µg/mL; MIC [2]: > 32 µg/mL; MIC (EC878 E. coli tolC): 16 µg/mL (≈ 19.6 µM); MIC (BS1725 B. subtilis ermC; BS1725 B. subtilis ermC (+ery)): > 32 µg/mL; MIC (BS1725 B. subtilis ermC; BS1725 B. subtilis ermC (−ery)): > 32 µg/mL; MIC (EC882 E. coli imp): 4 µg/mL (≈ 4.89 µM); MIC (EC107 E. coli ATCC25922): > 32 µg/mL |
| C=CC[C@@H]1[C@H]2N(CCCCn3cc(-c4cccc(N)c4)nn3)C(=O)O[C@]2(C)[C@@H](CC)OC(=O)[C@H](C)C(=O)[C@H](C)[C@@H](O[C@@H]2OC(C)CC(N(C)C)C2O)[C@](C)(OC)C[C@@H](C)CN1C (stereo partly shown) [FSM-11094] | > 32 µg/mL | 4 µg/mL (≈ 4.61 µM) | 8 µg/mL (≈ 9.22 µM) | > 32 µg/mL | > 32 µg/mL | 16 µg/mL (≈ 18.4 µM) | 8 µg/mL (≈ 9.22 µM) | 8 µg/mL (≈ 9.22 µM) | 16 µg/mL (≈ 18.4 µM) | 1 µg/mL (≈ 1.15 µM) | > 32 µg/mL | > 32 µg/mL | > 32 µg/mL | 2 µg/mL (≈ 2.3 µM) | > 32 µg/mL | 16 µg/mL (≈ 18.4 µM) |  |
| CC[C@H]1OC(=O)[C@H](CC(=O)O)C(=O)[C@H](C)[C@@H](O[C@@H]2OC(C)CC(N(C)C)C2O)[C@](C)(OC)C[C@@H](C)CN[C@H](C)[C@H]2N(CCCCn3cc(-c4cccc(N)c4)nn3)C(=O)O[C@]12C (stereo partly shown) [FSM-56185] | > 32 µg/mL | > 32 µg/mL | > 32 µg/mL | > 32 µg/mL | > 32 µg/mL | > 32 µg/mL | > 32 µg/mL | > 32 µg/mL | > 32 µg/mL | > 32 µg/mL | > 32 µg/mL | > 32 µg/mL | > 32 µg/mL | > 32 µg/mL | > 32 µg/mL | > 32 µg/mL |  |
| CC[C@H]1OC(=O)[C@H](C)C(=O)[C@H](C)[C@@H](O[C@@H]2OC(C)CC(N(C)C)C2O)[C@](C)(OC)C[C@@H](C)CNC[C@H]2N(CCCCn3cc(-c4cccc(N)c4)nn3)C(=O)O[C@]12C (stereo partly shown) [FSM-11031] | 16 µg/mL (≈ 19.7 µM) | 0.25 µg/mL (≈ 0.307 µM) | 2 µg/mL (≈ 2.46 µM) | > 32 µg/mL | > 32 µg/mL | 1 µg/mL (≈ 1.23 µM) | 4 µg/mL (≈ 4.91 µM) | 2 µg/mL (≈ 2.46 µM) | 4 µg/mL (≈ 4.91 µM) | 0.25 µg/mL (≈ 0.307 µM) | 1 µg/mL (≈ 1.23 µM) | > 32 µg/mL | > 32 µg/mL | 0.25 µg/mL (≈ 0.307 µM) | 16 µg/mL (≈ 19.7 µM) | 4 µg/mL (≈ 4.91 µM) |  |
| CC[C@H]1OC(=O)[C@H](C)C(=O)[C@H](C)[C@@H](O[C@@H]2OC(C)CC(N(C)C)C2O)[C@](C)(OC)C[C@@H](C)CN(C)[C@H](C)[C@H]2N(CCCCn3cc(-c4cccc(N)c4)nn3)C(=O)O[C@]12C (stereo partly shown) [FSM-21339] | 32 µg/mL (≈ 38 µM) | 0.5 µg/mL (≈ 0.594 µM) | 2 µg/mL (≈ 2.38 µM) | > 32 µg/mL | > 32 µg/mL | 4 µg/mL (≈ 4.75 µM) | 2 µg/mL (≈ 2.38 µM) | 2 µg/mL (≈ 2.38 µM) | 8 µg/mL (≈ 9.5 µM) | 0.125 µg/mL (≈ 0.148 µM) | 1 µg/mL (≈ 1.19 µM) | > 32 µg/mL | > 32 µg/mL | ≤ 0.0625 µg/mL | 16 µg/mL (≈ 19 µM) | 4 µg/mL (≈ 4.75 µM) |  |
| CC[C@H]1OC(=O)[C@H](C)C(=O)[C@H](C)[C@@H](O[C@@H]2OC(C)CC(N(C)C)C2O)[C@](C)(OC)C[C@@H](C)CN[C@H](C)[C@H]2N(C/C=C/Cn3cc(-c4ccccn4)nn3)C(=O)O[C@]12C (stereo partly shown) [FSM-70153] | 16 µg/mL (≈ 19.7 µM) | 0.25 µg/mL (≈ 0.308 µM) | 1 µg/mL (≈ 1.23 µM) | > 32 µg/mL | > 32 µg/mL | 4 µg/mL (≈ 4.93 µM) | 2 µg/mL (≈ 2.46 µM) | 0.5 µg/mL (≈ 0.616 µM) | 2 µg/mL (≈ 2.46 µM) | 0.125 µg/mL (≈ 0.154 µM) | 4 µg/mL (≈ 4.93 µM) | > 32 µg/mL | > 32 µg/mL | ≤ 0.0625 µg/mL | 4 µg/mL (≈ 4.93 µM) | 2 µg/mL (≈ 2.46 µM) |  |
| C=CC[C@H]1NC[C@H](C)C[C@@](C)(OC)[C@H](O[C@@H]2OC(C)CC(N(C)C)C2O)[C@@H](C)C(=O)[C@@H](C)C(=O)O[C@H](CC)[C@@]2(C)OC(=O)N(CCCCn3cc(-c4cccc(N)c4)nn3)[C@H]12 (stereo partly shown) [FSM-11044] | 32 µg/mL (≈ 37.5 µM) | 0.25 µg/mL (≈ 0.293 µM) | 1 µg/mL (≈ 1.17 µM) | > 32 µg/mL | > 32 µg/mL | 1 µg/mL (≈ 1.17 µM) | 1 µg/mL (≈ 1.17 µM) | 2 µg/mL (≈ 2.34 µM) | 8 µg/mL (≈ 9.37 µM) | 0.125 µg/mL (≈ 0.146 µM) | 1 µg/mL (≈ 1.17 µM) | > 32 µg/mL | > 32 µg/mL | 0.125 µg/mL (≈ 0.146 µM) | 32 µg/mL (≈ 37.5 µM) | 8 µg/mL (≈ 9.37 µM) |  |
